Measurements published in patent US20160120186A1, “ENHANCEMENT AND CONTROL OF SEED GERMINATION WITH COMPOSITIONS COMPRISING A TRANSITION METAL CATALYST AND AN OXIDANT” (UNIVERSITY OF SASKATCHEWAN, priority 2013, published 2016).

Key:
[1] = Microbiocidal properties of per-acids (studies by the inventors)
[2] = Delignification by per-acids (studies by the inventors)

SMILES	microbiocidal properties [1]	delignification of plant wall material [2]
CC(=O)O[O-].[Na+] [peracetate]	very powerful microbiocidal properties	very efficient delignification
O=COO [performate]	very powerful microbiocidal properties	very efficient delignification
